Results taken from patent publication US20110077230A1, “COPPER ORGANOCOMPLEXES, USE THEREOF AS ANTITUMOR MEANS AND FOR PROTECTING HEALTHY TISSUE FROM IONIZING RADIATION” (CHARITE - UNIVERSITATSMEDIZIN BERLIN, priority 2008, published 2011).

How the values were obtained:
[1] = tested on: Human lymphoma cells (BJAB); experiment: In vivo inhibition of tumor growth, BJAB implanted in SCID mice; settings: 10 mg/kg peroral, suspended in olive oil
Experimental: Human lymphoma cells (BJAB) were implanted in six SCID mice. After a tumor with a diameter of 5 mm had formed, the mice were subjected to peroral treatment with complex A at a dose of 10 mg/kg, suspended in olive oil. The control group consisted of 10 animals treated with olive oil only.
* denotes the significance (p≦0.05) in the Mann-Whitney U-test.

[2] = tested on: BJAB cells (lymphoma cell line); experiment: Induction of apoptosis (DNA fragmentation, propidium iodide, FACS) in BJAB cells; format: cell-based, human; settings: 0.1 mmol of complex A, 72 hours
Experimental: BJAB cells (lymphoma cell line) at a concentration of 1×10^5/ml were treated with increasing concentrations of complex A dissolved in DMSO and incubated for 72 hours at 37° C. and 5% CO2. Following propidium iodide staining, the DNA fragments were detected using flow cytometry (FACS analysis). KO (untreated cell suspension) and DMSO were carried along in an equivalent treatment.

[3] = Solubility and stability of the complexes
[4] = tested on: colon adenocarcinoma tumor (AKATOL); experiment: Transplanted colon adenocarcinoma (AKATOL), intraabdominal injection; format: in vivo, mice of the BALB line; design: Average weight: unit not given here; settings: for Average volume of tumor: day 21
Experimental: A suspension of tumor cells was injected into the thighs of 15 mice of the BALB line. The animals received the complex A preparation at a dose of 5 mg/kg 4, 6, 8 and 11 days after implantation.
Group I received the preparation dissolved in DMSO and dispersed in a 4% suspension in physiological saline.
Group II received the preparation in Tween 60.
Group III remained untreated.
On day 21 of the experiment the animals were sacrificed and examined.

[5] = Group I: 5 mg/kg in DMSO/physiological saline

Copper-sarcolysine hydrochloride complex [complex A]
inhibition of tumor growth [1]: significant inhibition of tumor growth | induction of apoptosis, % of the cells [2]: 43.5% | solubility in DMSO ([3]; dimethyl sulfoxide (DMSO)): dissolves | solubility in organic solvents ([3]; most / many organic solvents): insoluble | stability at room temperature ([3]; room temperature, even when exposed to oxygen): stable | solubility in water ([3]; water): insoluble | Average volume of tumor ([4]; Group I: 5 mg/kg in DMSO, 4% suspension in physiological saline): 1.315 cm^3 | % inhibition, mass percent [4, 5]: 60.4% | % inhibition, volume percent [4, 5]: 87.1% | Average weight [4, 5]: 1.25 | % inhibition, mass percent ([4]; Group II: 5 mg/kg in Tween 60): 95.85% | % inhibition, volume percent ([4]; Group II: 5 mg/kg in Tween 60): 97.8% | Average weight ([4]; Group II: 5 mg/kg in Tween 60): 0.25 | Average volume of tumor ([4]; Group II: 5 mg/kg in Tween 60): 0.217 cm^3
